{"source": "ChEMBL document CHEMBL1833893", "about": "“Synthesis and anticonvulsant activity of new 1-[2-oxo-2-(4-phenylpiperazin-1-yl)ethyl]pyrrolidine-2,5-diones” (Bioorg Med Chem Lett, 2011)", "key": {"[1]": {"system": "Mus musculus", "assay": "Anticonvulsant activity in ip dosed albino CF1 mouse assessed as protection against maximal electroshock-induced seizures after 0.25 hrs", "type": "functional", "conditions": "read-out: MED"}, "[2]": {"system": "Mus musculus", "assay": "Anticonvulsant activity in albino CF1 mouse assessed as protection against maximal electroshock-induced seizures at 300 mg/kg, ip after 4 hrs", "type": "functional, organism-based", "set-up": "dose 300 mg/kg"}, "[3]": {"system": "Mus musculus", "assay": "Anticonvulsant activity in ip dosed albino CF1 mouse assessed as protection against maximal electroshock-induced seizures after 0.5 hrs", "type": "functional", "conditions": "read-out: MED"}, "[4]": {"system": "Mus musculus", "assay": "Anticonvulsant activity in albino CF1 mouse assessed as protection against subcutaneous pentylenetetrazole-induced seizures at 300 mg/kg, ip after 4 hrs", "type": "functional, organism-based", "set-up": "dose 300 mg/kg"}, "[5]": {"system": "Mus musculus", "assay": "Anticonvulsant activity in albino CF1 mouse assessed as protection against subcutaneous pentylenetetrazole-induced seizures at 300 mg/kg, ip after 0.5 hrs", "type": "functional, organism-based", "set-up": "dose 300 mg/kg"}, "[6]": {"system": "Mus musculus", "assay": "Neurotoxicity in albino CF1 mouse assessed as motor impairment at 300 mg/kg, ip after 4 hrs by rotarod test", "type": "toxicity, organism-based", "set-up": "dose 300 mg/kg, route intraperitoneal", "conditions": "in vivo"}, "[7]": {"system": "Mus musculus", "assay": "Neurotoxicity in albino CF1 mouse assessed as motor impairment at 300 mg/kg, ip after 0.5 hrs by rotarod test", "type": "toxicity, organism-based", "set-up": "dose 300 mg/kg, route intraperitoneal", "conditions": "in vivo"}}, "note": "Calls of active or inactive are those of the source. The rule behind the calls is not given here."}
{"smiles": "CC1(C)CC(=O)N(CC(=O)N2CCN(c3ccccc3)CC2)C1=O", "values": [{"measurement": "minimal effective dose", "setting": "[1]", "result": 100, "unit": "mg/kg"}, {"measurement": "Activity", "setting": "[2]", "result": "inactive"}, {"measurement": "minimal effective dose", "setting": "[3]", "result": 300, "unit": "mg/kg"}, {"measurement": "Activity", "setting": "[4]", "result": "inactive"}, {"measurement": "Activity", "setting": "[5]", "result": "inactive"}, {"measurement": "Activity", "setting": "[6]", "result": "Non-toxic"}, {"measurement": "Activity", "setting": "[7]", "result": "Non-toxic"}]}
